Test results from US9896445B2, “Heterocyclic inhibitors of ERK1 and ERK2 and their use in the treatment of cancer” (Asana Biosciences, LLC, priority 2015, dated 2018).
Where two headings read alike, the source gives them in different places. Blank lines part the entries; values can stand above or below the molecule they belong to.

Key:
ERK1 = target: T1, ERK1 (Homo sapiens, UniProt P27361); experiment: ERK1 HTRF (biochemical) assay; conditions: HTRF
T1 construct: purchased Jubilant Biosys
Method: ERK1 and ERK2 HTRF (Biochemical) Assays
These assays employed a homogeneous time resolved fluorescence (HTRF) technique. […] The plate was incubated at room temperature for 60 min with shaking. […] The IC50 values (half maximal inhibitory concentration values) were subsequently determined using a sigmoidal dose-response curve (variable slope) in GraphPad Prism® 5 software.

[1] = tested on: human melanoma xenograft model (A375) harboring B-RAF V600E mutation; experiment: A375 human melanoma xenograft model, tumor growth inhibition; assay type: in vivo, mice
Method: (§1) In Vivo Studies in Tumor Xenograft Models
(§2) Tumor Cell Implantation and Randomization of Animals
(§3) Foxn1 nu/nu strain of female mice (obtained from Charles River Laboratories, USA), 8-10 weeks of age, body weight range 23-25 g, were used for the tumor xenograft efficacy studies. Human cancer cell lines (such as melanoma A375, colorectal HT29, pancreatic BxPC3, colorectal HCT116, and lung A549) were first grown in vitro, and then about five million (5×10^6) of these cells in 100 μL of serum free medium were mixed with an equal amount of matrigel, and the entire mixture was injected subcutaneously at the right flank region of mice. The tumors were measured with Vernier calipers periodically after the first week of injection. When the tumor volume reached 120-150 mm^3 (about 3-4 weeks after injection) the animals were randomized into different groups so that their tumor volume was approximately the same in all groups.
(§4) Determination of In Vivo Efficacy of Tumor Growth Inhibition
(§5) For PO dosing, the compounds were prepared in a formulation containing 0.5% Methyl cellulose and 0.01% Tween 80. For IV, SC, or IP dosing, the compounds were prepared in 6% solutol-ethanol (1:1), 6% DMSO and 88% saline. Animals were dosed with compounds prepared in specific formulations via PO, IP or SC route either QD or BID at the required doses. Tumors size and body weights were measured twice or thrice in a week. Tumors were harvested at the end of the study after euthanizing the animals according to approved protocols. […]
(§6) Changes in tumor volume (Δ volumes) for each treated (T) and control (C) group were calculated by subtracting the mean tumor volume on the first day of treatment (starting day) from the mean tumor volume on the specified observation day. […]
(§7) Percentage tumor growth inhibition was calculated as [100−% T/C]. Percentage body weight change was calculated as [(Body weight on specified observation day−Body weight on starting day)/Body weight on starting day]×100.

ERK2 = target: T2, ERK2 (Homo sapiens, UniProt P28482); experiment: ERK2 HTRF (biochemical) assay; conditions: HTRF
T2 construct: purchased Jubilant Biosys
Outline: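 Readout was time-resolved FRET between europium anti-phospho-MBP and streptavidin-APC after a 60-min room-temperature kinase step. That step used ERK2 (25 nM in enzyme mix), biotinylated MBP peptide (1 uM) and ATP (24 uM) from the substrate mix, in pH 7.5 Tris buffer.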

[2] = tested on: human colon cancer xenograft model (HCT116; harboring KRAS mutation); experiment: HCT116 human colon cancer xenograft model, tumor growth inhibition; assay type: in vivo, mice; conditions: 50 mg/kg BID orally for 24 days
Method: as §1, §2
as §3, with “When the tumor volume reached 120-150 mm^3 (about 3-4 weeks after injection) the animals were randomized into different groups so that their tumor volume was approximately the same in all groups.” left out
(§8) For PO dosing, the compounds were prepared in a formulation containing 0.5% Methyl cellulose and 0.01% Tween 80. […] Tumors size and body weights were measured twice or thrice in a week. […]
as §6, §7

[3] = tested on: HCT116 (colorectal carcinoma, K Ras G13D) cells; experiment: Cell proliferation (Alamar Blue) assay, HCT116; assay type: cell-based, human
Method: (§9) Cell Proliferation (Alamar Blue) Assay
(§10) HT-29 (colorectal carcinoma, B-RafV600E), HCT116 (colorectal carcinoma, K Ras G13D), A375 (melanoma, B-RafV600E) and SK-Mel2 (melanoma, NRAS Q61R) cells (obtained from ATCC, USA) were seeded (5000 cells/well) in 96-well tissue culture plate and incubated at 37° C./5% CO2 for 16-24 hours. The cells were then treated with compounds, at concentrations typically from 0.0005 to 10 uM prepared in 3-fold serial dilutions. The plates were then incubated for 72 h at 37° C./5% CO2 in a moist environment. Then Alamar Blue™ reagent (final concentration 1×) was added to each well and incubated for 1-3 h at 37° C./5% CO2. The plates were read on fluorescence reader at 540 nm excitation and 590 nm emission wavelengths. The IC50 values were subsequently determined using a sigmoidal dose-response curve (variable slope) using GraphPad Prism® 5 software.

[4] = tested on: phospho-RSK (the downstream target of ERK1/2); experiment: Pharmacodynamic assay, phospho-RSK in A375 tumor samples; assay type: in vivo, mice; conditions: A375 tumor samples harvested at 1 h after dosing at 50 mg/kg PO, compared to vehicle control
Method: as §3, §5

[5] = tested on: human colon cancer xenograft model (HT-29) harboring B-RAF V600E mutation; experiment: HT-29 human colon cancer xenograft model, tumor growth inhibition; assay type: in vivo, mice; conditions: HT-29 xenograft
Method: as §1, §2
as §3, with “When the tumor volume reached 120-150 mm^3 (about 3-4 weeks after injection) the animals were randomized into different groups so that their tumor volume was approximately the same in all groups.” left out
as §8, §6, §7

[6] = tested on: human pancreatic carcinoma xenograft model, BxPC3 (wild type KRAS); experiment: BxPC3 human pancreatic carcinoma xenograft model, tumor growth inhibition; assay type: in vivo, mice
Method: as §1, §2
as §3, with “When the tumor volume reached 120-150 mm^3 (about 3-4 weeks after injection) the animals were randomized into different groups so that their tumor volume was approximately the same in all groups.” left out
as §8, §6, §7

phospho-RSK1(S380) = experiment: Phospho-RSK1(S380) ELISA assay in HT-29 cells; assay type: cell-based, human; conditions: read-out: Mechanist Cell Assay RSK1 Phos HT29 IC50
Method: Phospho-RSK1(S380) ELISA Assay
HT-29 cells (colorectal carcinoma, B-RafV600E); obtained from ATCC, USA) were seeded (60,000 cells/well) in a 96-well plate and incubated at 37° C./5% CO2 overnight and then treated with desired compound dilutions for 2 h. Medium was removed and cells were rinsed once with ice-cold 1×PBS, then 0.070 mL ice-cold 1× cell lysis buffer containing 1 mM PMSF was added to each well and the plate was incubated on a shaker for 2 h and 30 min at 4° C. The plate was then centrifuged for 20 min (×4000 rpm) at 4° C. and the supernatant was transferred to a new plate. Cell lysates were diluted with sample diluent at a ratio of 1:1. The ELISA was then carried out following the manufacturer's protocol (PathScan® phospho-RSK1(Ser380) Sandwich ELISA Kit, Cell Signaling Technologies). The plate was read at 450 nm within 30 min after adding STOP solution. The IC50 values were subsequently determined using a sigmoidal dose-response curve (variable slope) in GraphPad Prism® 5 software.

[7] = tested on: HT-29 (colorectal carcinoma, B-RafV600E) cells; experiment: Cell proliferation (Alamar Blue) assay, HT-29; assay type: cell-based, human; conditions: HT29 cells
Method: as §9, §10

[8] = tested on: human lung carcinoma xenograft model (A549; harboring KRAS mutation); experiment: A549 human lung carcinoma xenograft model, tumor growth inhibition; assay type: in vivo, mice; conditions: 50 mg/kg BID orally for 20 days
Method: as §1, §2, §3, §4, §5, §6, §7

[9] = 50 mg/kg BID orally for 19 days
[10] = Homo sapiens, HCT-116, HCT116 cells

T1 sequence (P27361 whole entry): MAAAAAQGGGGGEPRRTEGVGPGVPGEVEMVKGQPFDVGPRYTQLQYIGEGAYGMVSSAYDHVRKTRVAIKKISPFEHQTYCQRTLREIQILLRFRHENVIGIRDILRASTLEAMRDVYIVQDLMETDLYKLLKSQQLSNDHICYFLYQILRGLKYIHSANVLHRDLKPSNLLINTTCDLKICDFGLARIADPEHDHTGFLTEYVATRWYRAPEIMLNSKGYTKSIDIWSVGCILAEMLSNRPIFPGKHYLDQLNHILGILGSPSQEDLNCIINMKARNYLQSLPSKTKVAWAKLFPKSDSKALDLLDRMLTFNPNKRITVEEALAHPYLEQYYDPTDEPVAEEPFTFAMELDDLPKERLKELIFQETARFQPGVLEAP
T2 sequence (P28482 whole entry): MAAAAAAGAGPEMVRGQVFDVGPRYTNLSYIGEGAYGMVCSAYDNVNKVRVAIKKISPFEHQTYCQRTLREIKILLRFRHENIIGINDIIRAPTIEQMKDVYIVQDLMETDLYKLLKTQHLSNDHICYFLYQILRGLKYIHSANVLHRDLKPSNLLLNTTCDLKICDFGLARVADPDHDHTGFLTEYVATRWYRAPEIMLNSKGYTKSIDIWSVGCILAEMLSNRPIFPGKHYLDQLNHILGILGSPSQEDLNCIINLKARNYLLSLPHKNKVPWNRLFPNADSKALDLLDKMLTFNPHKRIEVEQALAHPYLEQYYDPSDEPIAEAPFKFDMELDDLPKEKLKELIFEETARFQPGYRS

SMILES: Cc1cnc(NC2CCOCC2)nc1-n1cnc(C(=O)N[C@H](CN)c2cccc(Cl)c2)c1 (single isomer, unassigned) [Compound 225a]
IC50 (ERK1): < 0.05 µM
body weight loss [1, 9]: no significant body weight loss
IC50 (ERK2): ≤ 0.05 µM
body weight loss [2]: no significant body weight loss

IC50 (ERK1): < 0.05 µM
IC50 (ERK2): ≤ 0.05 µM
IC50 [3, 10]: > 2.5 µM
SMILES: Cc1cnc(Nc2ccc(F)cc2)cc1-n1cnc(C(=O)NC(CN)c2ccccc2)c1 (single isomer, unassigned) [Compound 227, N-(2-amino-1-phenylethyl)-1-(2-((4-fluorophenyl)-amino)-5-methyl-pyridin-4-yl)-1H-imidazole-4-carboxamide]

IC50 (ERK1): < 0.05 µM
IC50 (ERK2): ≤ 0.05 µM
SMILES: Cc1cnc(NC2CCOCC2)nc1-n1cnc(C(=O)NC(CO)c2cccc(Cl)c2)c1 (stereo not drawn) [Compound 201, N-(1-(3-chlorophenyl)-2-hydroxyethyl)-1-(5-methyl-2-((tetrahydro-2H-pyran-4-yl)amino)pyrimidin-4-yl)-1H-imidazole-4-carboxamide]
inhibition of phospho-RSK [4]: about 66%
body weight loss ([5]; 50 mg/kg BID orally for 20 days): no significant body weight loss
tumor growth inhibition ([5]; dosed orally at 50 mg/kg BID for 20 days): approximately 50%
body weight loss ([6]; 50 mg/kg BID orally for 25 days): no significant body weight loss
tumor growth inhibition ([6]; dosed orally at 50 mg/kg BID for 25 days): about 63%

IC50 (ERK1): < 0.05 µM
melting point: 145 °C
IC50 (ERK2): ≤ 0.05 µM
SMILES: Cc1cnc(NC2CCOCC2)nc1-n1cnc(C(=O)N[C@H](CO)c2cccc(Cl)c2)c1 [Compound 211, (S)-N-(1-(3-chlorophenyl)-2-hydroxyethyl)-1-(5-methyl-2-((tetrahydro-2H-pyran-4-yl)amino)pyrimidin-4-yl)-1H-imidazole-4-carboxamide]
body weight loss ([1]; 50 mg/kg BID orally for 17 days): no significant body weight loss
inhibition of phospho-RSK [4]: ~84%

SMILES: Cc1cnc(NC2CCOCC2)nc1-n1cnc(C(=O)NC(CN)c2cc(F)cc(Cl)c2)c1 (stereo not drawn) [Compound 236, N-(2-amino-1-(3-chloro-5-fluoro-phenyl)ethyl)-1-(5-methyl-2-((tetrahydro-2H-pyran-4-yl)amino)-pyrimidin-4-yl)-1H-imidazole-4-carboxamide]
IC50 (phospho-RSK1(S380); HT29 cells): ≤ 0.1 µM
IC50 ([3]; HCT116 cells): ≤ 0.1 µM
IC50 [7]: ≤ 0.1 µM

IC50 (ERK1): < 0.05 µM
IC50 (phospho-RSK1(S380); Homo sapiens, HT-29, HT29 cells): 0.25 to 0.5 µM
IC50 (ERK2): ≤ 0.05 µM
IC50 [3, 10]: 0.5 to 2.5 µM
SMILES: Cc1cnc(NC2CCOCC2)nc1-n1cnc(C(=O)N[C@]2(c3cccc(Cl)c3)C[C@H](O)C2)c1 [Compound 245, N-((1s,3s)-1-(3-chlorophenyl)-3-hydroxycyclobutyl)-1-(5-methyl-2-((tetrahydro-2H-4-yl)amino)pyrimidin-4-yl)-1H-imidazole-4-carboxamide]

SMILES: Cc1cnc(NC2CC(F)(F)C2)nc1-n1cnc(C(=O)N[C@H](CN)c2cccc(Cl)c2)c1 [Example 259, (S)-N-(2-amino-1-(3-chlorophenyl)-ethyl)-1-(2-((3,3-difluorocyclobutyl)amino)-5-methyl-pyrimidin-4-yl)-1H-imidazole-4-carboxamide]
body weight loss [1, 9]: no significant body weight loss
body weight loss [2]: no significant body weight loss

SMILES: Cc1cnc(NC2CCOCC2)nc1-n1cnc(C(=O)N[C@H](CN)c2cc(F)cc(Cl)c2)c1.O=S(=O)(O)c1ccccc1 [Example 302, (S)-N-(2-amino-1-(3-chloro-5-fluoro-phenyl)ethyl)-1-(5-methyl-2-((tetrahydro-2H-pyran-4-yl)amino)-pyrimidin-4-yl)-1H-imidazole-4-carboxamide benzenesulfonic acid salt]
body weight loss [8]: no significant body weight loss

SMILES: Cc1cnc(NC2CC(F)(F)C2)nc1-n1cnc(C(=O)N[C@H](CN)c2cccc(Cl)c2)c1.O=S(=O)(O)c1ccccc1 [Example 304, (S)-N-(2-amino-1-(3-chlorophenyl)-ethyl)-1-(2-((3,3-difluorocyclobutyl)amino)-5-methyl-pyrimidin-4-yl)-1H-imidazole-4-carboxamide benzenesulfonic acid salt]
body weight loss [8]: no significant body weight loss
